For orientation: pKi means the negative decadic logarithm of the Ki, by convention in mol/L.

Molecules are shown by their SMILES. pKi: −log10 of the molar value.

The results in this text go back to ChEMBL document CHEMBL5338821, “6-Substituted Triazolyl Benzoxaboroles as Selective Carbonic Anhydrase Inhibitors: In Silico Design, Synthesis, and X-ray Crystallography” (J Med Chem, 2023).

The target of assay [1] is Carbonic anhydrase 2 (Homo sapiens, UniProt P00918). The experiment in a line: Inhibition of recombinant human carbonic anhydrase II assessed as inhibition constant incubated for 15 mins by phenol red dye based stopped-flow CO2 hydration assay.
For assay [2], the target named is Carbonic anhydrase 1 (Homo sapiens, UniProt P00915). The experiment in a line: Inhibition of recombinant human carbonic anhydrase I assessed as inhibition constant incubated for 15 mins by phenol red dye based stopped-flow CO2 hydration assay.
The target of assay [3] is Carbonic anhydrase 9 (Homo sapiens, UniProt Q16790). The experiment in a line: Inhibition of recombinant human carbonic anhydrase IX assessed as inhibition constant incubated for 15 mins by phenol red dye based stopped-flow CO2 hydration assay.
Assay [4] addresses Carbonic anhydrase 7 (Homo sapiens, UniProt P43166). The experiment in a line: Inhibition of recombinant human carbonic anhydrase VII assessed as inhibition constant incubated for 15 mins by phenol red dye based stopped-flow CO2 hydration assay.
For assay [5], the target named is Carbonic anhydrase 4 (Homo sapiens, UniProt P22748). The experiment in a line: Inhibition of recombinant human carbonic anhydrase IV assessed as inhibition constant incubated for 15 mins by phenol red dye based stopped-flow CO2 hydration assay.
The species entered for assay [6] is Homo sapiens. The experiment in a line: Selectivity index, ratio of Ki for inhibition of recombinant human carbonic anhydrase I to Ki for inhibition of recombinant human carbonic anhydrase VII.
The species named for assay [7] is Homo sapiens. The experiment in a line: Selectivity index, ratio of Ki for inhibition of recombinant human carbonic anhydrase II to Ki for inhibition of recombinant human carbonic anhydrase IX.
Assay [8] is filed under the species Homo sapiens. The experiment in a line: Selectivity index, ratio of Ki for inhibition of recombinant human carbonic anhydrase I to Ki for inhibition of recombinant human carbonic anhydrase IX.
The species named for assay [9] is Homo sapiens. The experiment in a line: Selectivity index, ratio of Ki for inhibition of recombinant human carbonic anhydrase II to Ki for inhibition of recombinant human carbonic anhydrase VII.

Carbonic anhydrase 1, sequence (P00915 whole entry): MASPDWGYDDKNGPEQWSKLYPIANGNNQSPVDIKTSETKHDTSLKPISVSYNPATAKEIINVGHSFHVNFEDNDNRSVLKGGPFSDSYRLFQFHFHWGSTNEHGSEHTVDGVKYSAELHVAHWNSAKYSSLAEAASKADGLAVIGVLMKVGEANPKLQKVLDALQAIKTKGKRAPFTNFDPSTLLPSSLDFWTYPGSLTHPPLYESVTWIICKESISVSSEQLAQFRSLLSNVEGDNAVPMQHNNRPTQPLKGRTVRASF
Carbonic anhydrase 7, sequence (P43166 whole entry): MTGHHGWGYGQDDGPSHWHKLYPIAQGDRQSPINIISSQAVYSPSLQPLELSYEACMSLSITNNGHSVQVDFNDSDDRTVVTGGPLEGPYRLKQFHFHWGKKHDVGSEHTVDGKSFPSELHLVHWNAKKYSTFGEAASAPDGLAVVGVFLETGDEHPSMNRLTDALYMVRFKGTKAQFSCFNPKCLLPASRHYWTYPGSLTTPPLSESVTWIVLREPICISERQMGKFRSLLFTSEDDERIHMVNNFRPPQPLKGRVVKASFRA
Carbonic anhydrase 4, sequence (P22748 whole entry): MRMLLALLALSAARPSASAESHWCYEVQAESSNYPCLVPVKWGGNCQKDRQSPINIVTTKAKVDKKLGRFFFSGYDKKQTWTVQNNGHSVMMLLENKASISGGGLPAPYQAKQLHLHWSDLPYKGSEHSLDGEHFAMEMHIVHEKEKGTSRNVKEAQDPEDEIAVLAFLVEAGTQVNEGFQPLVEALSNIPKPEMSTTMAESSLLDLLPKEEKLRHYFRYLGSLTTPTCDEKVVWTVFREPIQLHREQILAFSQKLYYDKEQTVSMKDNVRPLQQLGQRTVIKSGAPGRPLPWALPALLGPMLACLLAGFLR

Turning to `OCCc1cn(-c2ccc3c(c2)B(O)OC3)nn1`, the pKi in [1] was 6.31; in [2] it was 5.84; in assay [3], 7.15; in assay [4] it was 7.09; in [5], 6.30.
In the case of `OCc1cn(-c2ccc3c(c2)B(O)OC3)nn1`, the pKi in [1] was 6.06; in assay [2], 5.96; in assay [3] it was 6.84; in [4], 6.85; in assay [5], 6.03.
For the compound `COc1ccc(OCc2cn(-c3ccc4c(c3)B(O)OC4)nn2)cc1`, the pKi is 6.59 in assay [1]; 6.06 in [2]; 7.28 in assay [3]; 7.06 in [4]; 5.78 in assay [5].
For `OB1OCc2ccc(-n3cc(COc4ccccc4)nn3)cc21`, the pKi in [1] is 6.69; in assay [2] it was 6.46; in [3], 7.54; in [4], 7.25; in assay [5], 5.86.
As to `O=C(O)c1cccc(-c2cn(-c3ccc4c(c3)B(O)OC4)nn2)c1`, the negative logarithm of the Ki (pKi) is 6.51 in [1]; 6.30 in assay [2]; 6.94 in assay [3]; 7.17 in assay [4]; 6.13 in assay [5].
As to `COc1cccc(OCc2cn(-c3ccc4c(c3)B(O)OC4)nn2)c1`, the pKi is 6.74 in assay [1]; 5.96 in assay [2]; 7.49 in [3]; 6.91 in assay [4]; 5.71 in assay [5].
With `O=c1ccc2ccc(OCc3cn(-c4ccc5c(c4)B(O)OC5)nn3)cc2o1`, the pKi in assay [1] was 6.43; in [2] it was 5.59; in assay [3], 6.96; in assay [4], 7.15; in assay [5], 5.50.
`OB1OCc2ccc(-n3cc(COc4ccc(F)cc4)nn3)cc21`: the pKi is 6.73 in assay [1]; 6.47 in assay [2]; 7.55 in assay [3]; 7.45 in assay [4]; 5.98 in [5]. Further, the Ratio Ki in [6], in assay [7], in [8] and in assay [9] was 6 each time.
As to `OB1OCc2ccc(-n3cc(CSc4ccccc4)nn3)cc21`, the pKi is 6.57 in assay [1]; 6.52 in [2]; 7.48 in assay [3]; 7.31 in assay [4]; 5.79 in [5]. The Ratio Ki in assay [6] and in assay [9] was 6 each time.
With `CC(C)(C)OC(=O)NCc1cn(-c2ccc3c(c2)B(O)OC3)nn1`, the negative-log Ki (pKi) in assay [1] was 6.34; in [2], 6.13; in assay [3], 7.12; in [4], 6.87; in assay [5], 6.14.
For `OB1OCc2ccc(-n3cc(-c4ccccc4)nn3)cc21`, the negative-log Ki (pKi) in assay [1] was 6.44; in assay [2] it was 6.13; in [3], 6.91; in assay [4] it was 6.58; in [5], 5.93.
On to `[N-]=[N+]=Nc1ccc2c(c1)B(O)OC2`, for which the pKi in [1] was 6.46; in assay [2] it was 5.52; in [3], 6.27; in assay [4], 6.36; in assay [5], 5.51.
Turning to `OB1OCc2ccc(-n3cc(C4CC4)nn3)cc21`, the pKi was 5.96 in assay [1]; 5.64 in assay [2]; 6.41 in assay [3]; 6.32 in assay [4]; 5.49 in [5].
As to `CCOC(=O)c1cn(-c2ccc3c(c2)B(O)OC3)nn1`, the pKi in assay [1] was 6.10; in assay [2] it was 5.60; in assay [3], 6.47; in assay [4], 6.36; in [5] it was 5.61.
